Data from patent publication US9388175B2, “2-aniline-4-aryl substituted thiazole derivatives” (Janssen Pharmaceutica N.V., priority 2005, dated 2016).

molecular target: T1, hα7-wt nAChR stably expressed in the GH4C1 cell line (Homo sapiens, UniProt P36544); assay: Ca2+ flux imaging (FLIPR) of PAM activity with choline as agonist; type: cell-based; conditions: efficacy relative to 100 μM choline alone (defined as 1); peak fluorescence, fluo-4AM; compounds tested 0.1 μM to 30 μM, efficacy criterion at 10 μM
T1 construct: expressed in transfected cells
T1 sequence (P36544 23-502): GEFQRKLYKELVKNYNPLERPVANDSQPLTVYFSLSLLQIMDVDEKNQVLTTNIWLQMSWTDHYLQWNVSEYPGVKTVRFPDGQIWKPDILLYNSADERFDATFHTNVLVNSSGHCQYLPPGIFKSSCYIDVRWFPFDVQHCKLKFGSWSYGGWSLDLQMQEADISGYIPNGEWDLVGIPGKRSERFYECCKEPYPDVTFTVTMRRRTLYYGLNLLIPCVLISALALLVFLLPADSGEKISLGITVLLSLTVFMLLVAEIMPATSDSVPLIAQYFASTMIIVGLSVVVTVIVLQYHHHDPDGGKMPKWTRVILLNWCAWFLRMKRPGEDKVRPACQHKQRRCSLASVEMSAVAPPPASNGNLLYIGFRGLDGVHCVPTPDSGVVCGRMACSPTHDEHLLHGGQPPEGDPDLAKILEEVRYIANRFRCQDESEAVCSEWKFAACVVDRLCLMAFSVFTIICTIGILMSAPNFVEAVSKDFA
Excerpt: Stable expression in mammalian cells in general and rat GH4C1 cells in particular, of cDNA clones encoding the human α7 wild-type sequence (hα7-wt nAChR) and in which the coding region is placed downstream of a promoter results in the appearance of functional α7 nAChRs on the surface of the mammalian cells. This technique has provided a powerful means of assessing the function of α7 wild-type protein. Given the fact that the cation permeability of the α7 nicotinic receptor preferentially favours calcium, fluorescent imaging of Ca^2+ flux through the hα7-wt nAChR stably expressed in the GH4C1 cell line was used as a first means of assaying modulator activity of the compounds of the present invention.
a) Assay Buffer • Hanks buffered saline solution (HBSS, Invitrogen, Belgium), supplemented with 10 mM HEPES (Invitrogen, Belgium), CaCl2 to a final concentration of 5 mM, 0.1% Bovine serum albumin (Sigma-Aldrich NV, Belgium), 2.5 mM probenecid (Sigma-Aldrich NV, Belgium).
b) Calcium-Sensitive Dye—Fluo-4AM • Fluo-4AM (Molecular Probes, USA) was dissolved in DMSO containing 10% Pluronic acid (Molecular Probes, USA) to give a stock solution which was aliquoted and could be stored at −20° C. until later use. On the day of the experiment Fluo-4AM stock was defrosted and diluted in DMEM/F12 (Invitrogen, Belgium) containing 2.5 mM probenicid and 0.1% BSA to give a final concentration of 2 μM.
c) 96-well Plates • BD Biocoat poly-D-lysine 96-well black/clear bottom plates (BD Biosciences, Belgium)
d) Calcium Flux Measurement • A Fluorimetric Imaging Plate Reader (FLIPR, Molecular Devices Corporation, Sunnyvale, USA) was used to measure intracellular free-calcium flux signals
Monolayers of hα7-wt nAChR-expressing cells were grown in multi-well plates, in particular black-sided, transparent bottomed 96 well plates coated with poly-D-lysine for 24 hours prior to loading with a fluorescent calcium indicator, in a particular embodiment loading with fluo-3 or fluo-4AM for up to 90 minutes, in an even more particular embodiment loading with fluo-4AM for up to 90 minutes, and in a preferred embodiment loading with fluo-4AM for 60 minutes.
In a particular embodiment, the α7 nicotinic receptor agonist was choline, a more particular embodiment choline applied at a sub-maximal concentration of 100 μM.
A control response to choline was calculated on each plate from the difference in peak fluorescence in wells receiving either choline or assay buffer alone. Compounds of the present invention were tested at a concentration range from 0.1 μM to 30 μM.
The activity ranges are defined as follows; A denotes an activity range from 1.1 till 1.5, B denotes an activity range from 1.5 till 2.0, C denotes an activity range from 2.0 till 3.0, D denotes an activity range from 3.0 till 4.5 and E denotes an efficacy from at least 4.5.

Structure (SMILES) | Activity Range
COc1cc(OC)c(Nc2nc(-c3ccc4c(c3)OCCO4)c(CC(N)=O)s2)cc1Cl [Compound 96, 2-[(5-chloro-2,4-dimethoxyphenyl)amino]-4-(2,3-dihydro-1,4-benzodioxin-6-yl)-5-thiazoleacetamide] | E (E denotes an efficacy from at least 4.5)
NC(=O)Cc1sc(Nc2cccc(C(F)(F)F)c2)nc1-c1ccc(Cl)cc1Cl [Compound 18, 2-[4-(2,4-Dichloro-phenyl)-2-(3-trifluoromethyl-phenylamino)-thiazol-5-yl]-acetamide] | B (B denotes an activity range from 1.5 till 2.0)
CCCc1nc(Nc2ccc(OC)cc2)sc1C(=O)OCC [Compound 102] | E (E denotes an efficacy from at least 4.5)
CCOC(=O)c1sc(Nc2cccc(C(F)(F)F)c2)nc1C(F)(F)F [Compound 147] | E (E denotes an efficacy from at least 4.5)
COc1cc(OC)c(Nc2nc(-c3ccncc3)c(CN3CCOCC3)s2)cc1Cl [Compound 100] | D (D denotes an activity range from 3.0 till 4.5)
O=C(Nc1cccnc1)c1sc(Nc2ccc(F)cc2)nc1-c1ccccc1 [Compound 169, 5-Thiazolecarboxamide, 2-[(4-fluorophenyl)amino]-4-phenyl-N-3-pyridinyl-] | D (D denotes an activity range from 3.0 till 4.5)
CCOC(=O)c1sc(Nc2cc(Cl)ccc2Cl)nc1-c1ccccc1 [Compound 174, 5-Thiazolecarboxylic acid, 2-[(2,5-dichlorophenyl)amino]-4-phenyl-, ethyl ester] | E (E denotes an efficacy from at least 4.5)
CCOC(=O)c1sc(Nc2ccc(OC)cc2)nc1C1CC1 [Compound 146] | E (E denotes an efficacy from at least 4.5)
Brc1ccc(Nc2nc(-c3cnc4ccccn34)cs2)cn1 [Compound 45] | D (D denotes an activity range from 3.0 till 4.5)
CCOC(=O)c1ccc(Nc2nc(-c3cccnc3)c(C)s2)cc1 [Compound 142] | E (E denotes an efficacy from at least 4.5)
CCOC(=O)c1sc(Nc2ccc(Cl)cc2Cl)nc1-c1ccccc1 [int. 6, 2-(2,4-Dichloro-phenylamino)-4-phenyl-thiazole-5-carboxylic acid ethyl ester] | E (E denotes an efficacy from at least 4.5)
CNC(=O)Cc1sc(Nc2cc(Cl)c(OC)cc2OC)nc1-c1ccc(F)c(F)c1 [Compound 134] | E (E denotes an efficacy from at least 4.5)
Fc1ccc(Nc2nc(-c3cccnc3)c(F)s2)cc1C(F)(F)F [Compound 81] | C (C denotes an activity range from 2.0 till 3.0)
COCCc1nc(Nc2ccc(OC)cc2)sc1C(=O)OC [Compound 158] | E (E denotes an efficacy from at least 4.5)
CNC(=O)c1sc(Nc2cc(Cl)c(OC)cc2OC)nc1-c1ccncc1 [Compound 105] | E (E denotes an efficacy from at least 4.5)
OCc1sc(Nc2cccc(C(F)(F)F)c2)nc1C(F)(F)F [Compound 119] | E (E denotes an efficacy from at least 4.5)
Fc1cccc(-c2csc(Nc3ccc(F)c(C(F)(F)F)c3)n2)c1 [Compound 79] | B (B denotes an activity range from 1.5 till 2.0)
CCOC(=O)c1sc(Nc2ccc(OC)cc2)nc1C1CCCN(C(=O)OCc2ccccc2)C1 (centres unmarked) [Compound 104] | E (E denotes an efficacy from at least 4.5)
Cc1cccc(Nc2nc(-c3cccnc3)cs2)c1 [Compound 76] | C (C denotes an activity range from 2.0 till 3.0)
CCOC(=O)c1sc(Nc2cc(Cl)ccc2Cl)nc1C1CC1 [Compound 152] | E (E denotes an efficacy from at least 4.5)
Fc1cncc(-c2csc(Nc3ccc(F)c(C(F)(F)F)c3)n2)c1 [Compound 5] | D (D denotes an activity range from 3.0 till 4.5)
Fc1ccc(Nc2nc(-c3cnc4ccccn34)cs2)cc1C(F)(F)F [Compound 9] | C (C denotes an activity range from 2.0 till 3.0)

Structure (SMILES) | Activity Range
Cc1cccc(Nc2nc(-c3cccnc3)c(Cl)s2)c1 [Compound 94] | D (D denotes an activity range from 3.0 till 4.5)
COc1ccc(OC)c(-c2csc(Nc3ccc(Cl)cc3Cl)n2)c1 [Compound 36] | C (C denotes an activity range from 2.0 till 3.0)
CCOC(=O)c1sc(Nc2cccc(C(F)(F)F)c2)nc1C [Compound 143] | E (E denotes an efficacy from at least 4.5)
Cc1ccc(Nc2nc(-c3cccnc3)cs2)cc1 [Compound 77] | C (C denotes an activity range from 2.0 till 3.0)
Cc1ccc(Nc2nc(-c3cncc(Br)c3)c(CO)s2)cn1 [Compound 125] | E (E denotes an efficacy from at least 4.5)
Clc1cccc(Nc2nc(-c3cnc4sccn34)cs2)c1 [Compound 61] | C (C denotes an activity range from 2.0 till 3.0)
FC(F)(F)c1cccc(Nc2nc(-c3cncnc3)cs2)c1 [Compound 73] | C (C denotes an activity range from 2.0 till 3.0)
COCc1nc(Nc2cc(Cl)ccc2Cl)sc1C(=O)OC [Compound 140] | E (E denotes an efficacy from at least 4.5)
COc1cc(OC)c(Nc2nc(-c3ccncc3)c(CN3CCCC3)s2)cc1Cl [Compound 99] | D (D denotes an activity range from 3.0 till 4.5)
COCCNC(=O)Cc1sc(Nc2cc(Cl)ccc2Cl)nc1-c1ccncc1 [Compound 106, 2-[(2,5-dichlorophenyl)amino]-N-(2-methoxyethyl)-4-(4-pyridinyl)-5-thiazoleacetamide] | E (E denotes an efficacy from at least 4.5)
COc1ccc(-c2csc(Nc3ccccc3OC)n2)c(OC)c1 [Compound 38] | D (D denotes an activity range from 3.0 till 4.5)
COc1ccc(Nc2nc(C(F)(F)F)c(CO)s2)cc1 [Compound 118] | E (E denotes an efficacy from at least 4.5)
OCc1sc(Nc2ccc(F)c(C(F)(F)F)c2)nc1-c1ccncc1 [Compound 89] | E (E denotes an efficacy from at least 4.5)
COc1ccc(Nc2nc(-c3ccccc3)c(CO)s2)cc1 [Compound 127] | E (E denotes an efficacy from at least 4.5)
OCc1sc(Nc2cccc(C(F)(F)F)c2)nc1-c1ccc(Cl)cc1Cl [Compound 31, [4-(2,4-Dichloro-phenyl)-2-(3-trifluoromethyl-phenylamino)-thiazol-5-yl]-methanol] | B (B denotes an activity range from 1.5 till 2.0)
FC(F)(F)c1cncc(Nc2nc(-c3cnc4ccccn34)cs2)c1 [Compound 47] | C (C denotes an activity range from 2.0 till 3.0)
Fc1cccc(-c2nc(Nc3cccc(C(F)(F)F)c3)sc2F)c1 [Compound 7] | C (C denotes an activity range from 2.0 till 3.0)
CC(=O)c1sc(Nc2cc(Cl)ccc2Cl)nc1C [Compound 110] | E (E denotes an efficacy from at least 4.5)
CCOC(=O)c1sc(Nc2cccc(C(F)(F)F)c2)nc1C1CC1 [Compound 145] | E (E denotes an efficacy from at least 4.5)
COc1cc(OC)c(Nc2nc(-c3ccc4c(c3)OCCO4)c(CC#N)s2)cc1Cl [int. 20] | E (E denotes an efficacy from at least 4.5)
COc1ccc(OC)c(-c2csc(Nc3ccccc3Cl)n2)c1 [Compound 43] | B (B denotes an activity range from 1.5 till 2.0)
OCc1sc(Nc2ccc(F)c(C(F)(F)F)c2)nc1-c1cccnc1 [Compound 91] | C (C denotes an activity range from 2.0 till 3.0)
